Values quoted from earlier work, collected in patent publication US11802256B2, “Method for extracting palmitoleic acid from macadamia integrifolia and use thereof” (SOUTHWEST FORESTRY UNIVERSITY, priority 2021, dated 2023).

Key:
tyrosinase = molecular target: T1, tyrosinase (Mus musculus, UniProt P11344); settings: mouse melanocytes, at a protein level
T1 construct: host or cells: mouse melanocytes / mouse melanoma cells (endogenous)
T1 sequence (P11344 19-533): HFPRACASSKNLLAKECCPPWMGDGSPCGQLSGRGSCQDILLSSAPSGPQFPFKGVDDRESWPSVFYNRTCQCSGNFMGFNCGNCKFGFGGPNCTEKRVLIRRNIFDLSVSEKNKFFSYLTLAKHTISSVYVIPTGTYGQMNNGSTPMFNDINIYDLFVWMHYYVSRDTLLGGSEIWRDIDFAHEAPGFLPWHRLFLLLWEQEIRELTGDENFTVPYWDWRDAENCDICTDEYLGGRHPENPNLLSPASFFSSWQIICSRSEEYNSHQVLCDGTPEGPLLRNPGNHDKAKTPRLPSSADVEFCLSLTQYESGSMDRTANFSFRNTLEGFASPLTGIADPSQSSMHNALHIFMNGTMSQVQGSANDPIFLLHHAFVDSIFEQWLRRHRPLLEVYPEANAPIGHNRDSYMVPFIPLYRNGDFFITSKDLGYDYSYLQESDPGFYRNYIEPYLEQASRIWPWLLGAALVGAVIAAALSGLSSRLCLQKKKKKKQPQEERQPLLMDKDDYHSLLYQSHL

- tyrosinase activity (tyrosinase): inhibits tyrosinase activity
SMILES: CCCCCC/C=C\CCCCCCCC(=O)O [palmitoleic acid]
- inhibitory effect on melanin production (mouse melanoma cells): strong inhibitory effect
